Source: US20200038399A1, “FORMULATIONS, METHODS, KIT, AND DOSAGE FORMS FOR TREATING BACTERIAL INFECTION” (Motif BioSciences Inc., priority 2016, published 2020)

Key:
S. aureus 101 [1] = assay: checkerboard synergy assay with iclaprim; assay type: cell-based, Staphylococcus aureus; settings: antibiotic in combination with iclaprim
Experimental: (§1) The synergistic potential of iclaprim against Gram-positive and Gram-negative bacteria was determined using the checkerboard assay as described in Eliopoulos GM and Moellering, Jr. RC (1991), Antimicrobial combinations, pp. 432-492, in V. Lorian (ed.), Antibiotics in laboratory medicine, 3rd Ed., The Williams & Wilkins Co., Baltimore, the entire disclosure of which is herein incorporated by reference, allowing multiple test concentrations of iclaprim to be assayed in the presence of various concentrations of the other antibiotic in microtiter plates. The same growth media and conditions were used as described in 3.2 below.
(§2) Two different dilutions were used for iclaprim depending on the MIC determined for the bacterium. […] Iclaprim and the other antibiotic being tested were also dispensed alone in the last row and in the last column, respectively, as controls.
(§3) The Fractional Inhibitory Concentrations (FIC) for each added agent were calculated and used to determine the sum of FIC (ΣFIC) indicative of the synergistic potential of a given combination as described in Veyssier P. (1999), Inhibiteurs de la dihydrofolate reductase, nitrohétérocycles (furanes) et 8-hydroxyquinoleines, pp. 995-1027, in A. Bryskier (ed.), Antibiotiques agents antibatériens et antifongiques, 1st Ed., Ellipses Edition Marketing SA, Paris, the entire disclosure of which is herein incorporated by reference. Synergy was defined whereby the ΣFIC was <0.5, indifference (no synergy nor antagonism) whereby ΣFIC was ≥0.5 but ≤4, and antagonism whereby ΣFIC was >4. Additivity as a special form of indifference was defined whereby the ΣFIC was ≥0.5 but <1, for example as described in Stevens, D L et al. (1998), In vitro antimicrobial effects of various combinations of penicillin and clindamycin against four strains of Streptococcus pyogenes, J. Antimicrob. Chemother. 42: 1266-1268, the entire disclosure of which is herein incorporated by reference.

[2] = system: Moraxella catarrhalis RA 21; assay: checkerboard synergy assay with iclaprim; assay type: cell-based; settings: antibiotic in combination with iclaprim; M. catarrhalis RA 21
Experimental: as §1, §2, §3

[3] = system: Streptococcus pneumoniae ATCC 49619; assay: checkerboard synergy assay with iclaprim; assay type: cell-based; settings: antibiotic in combination with iclaprim; S. pneumoniae 49619
Experimental: as §1, §2, §3

[4] = system: Staphylococcus aureus ATCC 25923; assay: checkerboard synergy assay with iclaprim; assay type: cell-based; settings: antibiotic in combination with iclaprim; S. aureus 25923
Experimental: as §1, §2, §3

[5] = system: Haemophilus influenzae ATCC 49766; assay: checkerboard synergy assay with iclaprim; assay type: cell-based; settings: antibiotic in combination with iclaprim; H. influenzae 49766
Experimental: as §1, §2, §3

[6] = system: Klebsiella pneumoniae ATCC 33495; assay: checkerboard synergy assay with iclaprim; assay type: cell-based; settings: antibiotic in combination with iclaprim; K. pneumoniae 33495
Experimental: as §1, §2, §3

S. pneumoniae 1/1 [7] = assay: checkerboard synergy assay with iclaprim; assay type: cell-based, Streptococcus pneumoniae; settings: antibiotic in combination with iclaprim
Experimental: as §1, §2, §3

S. pneumoniae 1/1 [8] = assay: MIC determination; assay type: cell-based, Streptococcus pneumoniae; settings: Streptococcus pneumoniae; S. pneumoniae 1/1; 18 hours at 37° C., 5% CO2; read-out: Minimum inhibitory concentrations (MIC)
Experimental: (§4) Minimum inhibitory concentration (MIC) determination.
(§5) In order to choose the appropriate concentrations to be tested in the checkerboard experiments, minimum inhibitory concentrations (MICs) were determined first. […] Table 6) in microtiter plates. Stock solutions (10 mg/ml) of reference antibiotics were prepared in DMSO (except for tobramycin, gentamicin, lomefloxacin, tetracycline) and stored at 4° C. The bacteria were grown in Mueller-Hinton Broth (BBL Mueller-Hinton Broth II, cation adjusted). S. pneumoniae was grown in Mueller-Hinton Broth supplemented with 5% (v/v) lysed sheep blood. For the growth of H. influenzae HTM (Haemophilus test medium) was used containing Mueller-Hinton broth, yeast extract ([…], Difco) and supplemented with NAD and hematin (HTM Supplement, Oxoid SR0158E). M. catarrhalis was grown in Brain Heart Infusion medium (Oxoid). The bacteria were incubated for 18 hours at 37° C. in ambient air except for S. pneumoniae, H. influenzae and M. catarrhalis, which were incubated in the presence of 5% CO2. The MIC was determined as the lowest concentration of an individual drug that lead to no visible growth.

S. aureus 101 [9] = assay: MIC determination; assay type: cell-based, Staphylococcus aureus; settings: Staphylococcus aureus, 101, 18 h; read-out: Minimum inhibitory concentrations (MIC)
Experimental: as §4, §5

[10] = system: Moraxella catarrhalis RA 21; assay: MIC determination; assay type: cell-based; settings: Moraxella catarrhalis, RA21; M. catarrhalis RA 21; 18 hours at 37° C., 5% CO2; read-out: Minimum inhibitory concentrations (MIC)
Experimental: as §4, §5

[11] = system: Streptococcus pneumoniae ATCC 49619; assay: MIC determination; assay type: cell-based; settings: Streptococcus pneumoniae, ATCC49619; S. pneumoniae 49619; 18 hours at 37° C., 5% CO2; read-out: Minimum inhibitory concentrations (MIC)
Experimental: as §4, §5

[12] = system: Staphylococcus aureus ATCC 25923; assay: MIC determination; assay type: cell-based; settings: Staphylococcus aureus, ATCC25923; S. aureus 25923; 18 hours at 37° C.; read-out: Minimum inhibitory concentrations (MIC)
Experimental: as §4, §5

[13] = system: Haemophilus influenzae ATCC 49766; assay: MIC determination; assay type: cell-based; settings: Haemophilus influenzae, ATCC49766; H. Influenza 49766; 18 hours at 37° C., 5% CO2; read-out: Minimum inhibitory concentrations (MIC)
Experimental: as §4, §5

[14] = system: Klebsiella pneumoniae ATCC 33495; assay: MIC determination; assay type: cell-based; settings: Klebsiella pneumoniae, ATCC33495; K. pneumonia 33495; 18 hours at 37° C.; read-out: Minimum inhibitory concentrations (MIC)
Experimental: as §4, §5

Row | SMILES | Σ FIC (S. aureus 101 [1]) | Con (Conclusion) [2] | Σ FIC [2] | Σ FIC [3] | Σ FIC [4] | Con (Conclusion) [5] | Σ FIC [5] | Con (Conclusion) [6] | Σ FIC [6] | Σ FIC (S. pneumoniae 1/1 [7]) | MIC (S. pneumoniae 1/1 [8]) | MIC (S. aureus 101 [9]) | MIC [10] | MIC [11] | MIC [12] | MIC [13] | MIC [14]
1 | C[C@@H]1O[C@@H]1P(=O)(O)O [Fosfomycin] | 1.03-1.50 | Ind (Indifference (Ind)) | 1.02-1.50 | 1.06-1.50 | 1.13-1.50 | Ad (Additivity (Ad)) | 0.74-1.12 | Ind (Indifference (Ind)) | 1.01-1.50 | 1.00-1.06 | 32 µg/mL | 64 µg/mL | 128 µg/mL | 32 µg/mL | 8 µg/mL | 0.062 µg/mL | > 128 µg/mL
2 | NC[C@H]1O[C@H](O[C@H]2[C@H](O)[C@@H](O[C@H]3O[C@H](CO)[C@@H](O)[C@H](N)[C@H]3O)[C@H](N)C[C@@H]2N)[C@H](O)[C@@H](O)[C@@H]1O [Kanamycin] | 1.01-1.50 | Ind (Indifference (Ind)) | 1.00-1.25 | 1.00-1.25 | 1.06-1.50 | Ind (Indifference (Ind)) | 1.02-1.13 | Ad (Additivity (Ad)) | 0.63-0.75 | 1.02-1.50 | 128 µg/mL | > 128 µg/mL | 4 µg/mL | 32 µg/mL | 2 µg/mL | 2 µg/mL | 4 µg/mL
3 | Cc1onc(-c2ccccc2Cl)c1C(=O)N[C@@H]1C(=O)N2[C@@H]1SC(C)(C)[C@@H]2C(=O)O [Cloxacillin] | 1.00-1.25 | Ad (Additivity (Ad)) | 0.53-1.00 | 1.00-1.25 | 0.99-1.25 | Ind (Indifference (Ind)) | 1.13-1.50 | Ind (Indifference (Ind)) | 1.01-2.50 | 1.00-1.25 | 64 µg/mL | 2 µg/mL | 64 µg/mL | 8 µg/mL | 0.25 µg/mL | 16 µg/mL | > 128 µg/mL
4 | C[C@H]1c2cccc(O)c2C(=O)C2=C(O)[C@]3(O)C(=O)C(C(N)=O)=C(O)[C@@H](N(C)C)[C@@H]3[C@@H](O)[C@@H]21 [Doxycycline] | 1.06-1.50 | Ind (Indifference (Ind)) | 1.02-1.50 | 1.02-1.51 | 1.02-1.50 | Ind (Indifference (Ind)) | 1.00-1.00 | Ind (Indifference (Ind)) | 1.01-1.50 | 1.25-1.50 | 2 µg/mL | 16 µg/mL | 0.5 µg/mL | 0.5 µg/mL | 0.5 µg/mL | 0.5 µg/mL | > 128 µg/mL
5 | CCn1cc(C(=O)O)c(=O)c2cc(F)c(N3CCNC(C)C3)c(F)c21 (centres unmarked) [Lomefloxacin] | 1.02-1.50 | Ad (Additivity (Ad)) | 0.63-1.13 | 0.75-1.13 | 1.06-1.50 | Ind (Indifference (Ind)) | 1.06-1.50 | Ind (Indifference (Ind)) | 1.13-1.50 | 0.75-1.13 | 8 µg/mL | 128 µg/mL | 0.5 µg/mL | 8 µg/mL | 1 µg/mL | 0.125 µg/mL | 4 µg/mL
6 | CC1(C)S[C@@H]2[C@H](NC(=O)[C@H](N)c3ccccc3)C(=O)N2[C@H]1C(=O)O [Ampicillin] | – | Ind (Indifference (Ind)) | – | – | 1.00-1.00 | Ind (Indifference (Ind)) | 1.13-1.50 | Ad (Additivity (Ad)) | – | – | 16 µg/mL | > 128 µg/mL | 16 µg/mL | 0.5 µg/mL | 0.5 µg/mL | 1 µg/mL | > 128 µg/mL
7 | CO[C@H]1/C=C/O[C@@]2(C)Oc3c(C)c(O)c4c(O)c(c(/C=N/N5CCN(C)CC5)c(O)c4c3C2=O)NC(=O)/C(C)=C\C=C\[C@H](C)[C@H](O)[C@@H](C)[C@@H](O)[C@@H](C)[C@H](OC(C)=O)[C@@H]1C [Rifampicin] | – | Ad (Additivity (Ad)) | 0.75-1.12 | 0.75-0.76 | – | Ind (Indifference (Ind)) | 1.12-1.50 | Ind (Indifference (Ind)) | 1.01-1.50 | 0.56-1.12 | 0.063 µg/mL | 0.031 µg/mL | 0.063 µg/mL | 0.031 µg/mL | 0.031 µg/mL | 0.063 µg/mL | > 128 µg/mL
8 | O=C(N[C@H](CO)[C@H](O)c1ccc([N+](=O)[O-])cc1)C(Cl)Cl [Chloramphenicol] | 0.63-1.13 | Ind (Indifference (Ind)) | 1.25-1.50 | 0.75-1.25 | 1.13-2.50 | Ind (Indifference (Ind)) | 1.06-1.50 | Ind (Indifference (Ind)) | 1.01-1.50 | – | 16 µg/mL | 64 µg/mL | 0.5 µg/mL | 4 µg/mL | 8 µg/mL | 0.5 µg/mL | > 128 µg/mL
9 | CO/N=C(\C(=O)N[C@@H]1C(=O)N2C(C(=O)O)=C(COC(C)=O)CS[C@H]12)c1csc(N)n1 [Cefotaxime] | 1.06-1.50 | Ad (Additivity (Ad)) | 0.56-1.03 | – | 1.03-1.50 | Ad (Additivity (Ad)) | – | Ind (Indifference (Ind)) | 1.13-1.50 | 0.63-1.06 | 8 µg/mL | 32 µg/mL | 4 µg/mL | 0.25 µg/mL | 4 µg/mL | 0.063 µg/mL | 0.5 µg/mL
